From patent publication EP4782453A1 (Beyang Therapeutics Co., Ltd., priority 2023, dated 2025)
Read-outs that look alike come from different tables or passages of the source.

Assays:
Menin-MLL = target: T1, Menin-MLL (Homo sapiens, UniProt O00255); test: Inhibitory activity against Menin-MLL binding (fluorescence polarization); settings: 150 nM His-Menin, 15 nM FITC-MLL, 25°C for 60 min
T1 construct: His-Menin (M1-L615 end); purchased BIORTUS BP9210
T1 sequence (O00255 1-615 isoform O00255-1): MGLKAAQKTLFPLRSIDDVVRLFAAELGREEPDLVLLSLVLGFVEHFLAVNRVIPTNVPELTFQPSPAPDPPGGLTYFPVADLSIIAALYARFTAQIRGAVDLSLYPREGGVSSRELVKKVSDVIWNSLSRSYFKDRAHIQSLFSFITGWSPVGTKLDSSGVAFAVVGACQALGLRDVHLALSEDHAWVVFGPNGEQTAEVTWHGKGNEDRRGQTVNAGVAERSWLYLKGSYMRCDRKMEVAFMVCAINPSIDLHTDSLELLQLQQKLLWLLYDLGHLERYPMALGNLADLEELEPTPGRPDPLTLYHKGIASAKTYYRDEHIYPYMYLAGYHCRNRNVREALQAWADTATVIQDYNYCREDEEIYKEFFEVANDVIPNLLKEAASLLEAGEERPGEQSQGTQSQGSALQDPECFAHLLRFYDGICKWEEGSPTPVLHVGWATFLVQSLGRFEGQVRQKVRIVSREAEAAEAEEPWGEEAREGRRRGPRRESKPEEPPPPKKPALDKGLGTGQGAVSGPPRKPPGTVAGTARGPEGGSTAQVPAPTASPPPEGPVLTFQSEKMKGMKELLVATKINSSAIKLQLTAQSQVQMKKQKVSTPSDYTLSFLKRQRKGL
Summary of the method: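 His-Menin (M1-L615, 150 nM) preincubated with compound 15 min at 25 °C in HEPES pH 7.5, 50 mM NaCl, 1 mM DTT, 0.01% BSA, then 15 nM FITC-MLL4-43 peptide added for 60 min at 25 °C. Fluorescence polarization read; IC50 from 4-parameter logistic fit, duplicates.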

[1] = test system: MOLM-13 (carrying MLL-AF9); test: Inhibition of proliferation of human tumor cells (Alamar Blue, 7 days), MOLM-13; format: cell-based; settings: Homo sapiens, MOLM-13 cells (carrying MLL-AF9), method calls the value GI50
Source text: Experimental Example 2: Evaluation of Inhibitory Activity of Compounds Against Proliferation of Human Tumor Cells
• Human acute lymphoblastic leukemia cells MV-4-11, purchased from American Type Culture Collection, Catalog Number: CRL-9591; • Human acute myeloid leukemia cells MOLM-13, purchased from COBIOER BIOSCIENCES CO., LTD, Catalog Number: CBP60678; • Human acute myeloid leukemia cells KG-1a, purchased from American Type Culture Collection, Catalog Number: CCL-246.1; • Inverted Microscope, purchased from Olympus Tokyo; • Countess™ Automated Cell Counter, purchased from Invitrogen, Model: C10281; and • Multilabel Reader, purchased from Bio-Tek, Model: Synergy HT.
MV-4-11 cells were cultured in an IMDM medium containing 10% fetal bovine serum, KG-a cells were cultured in an IMDM medium containing 20% fetal bovine serum, or MOLM-13 cells were cultured in an RPMI-1640 medium containing 20% fetal bovine serum, each supplemented with 100 U·mL^-1 penicillin and 100 µg·mL^-1 streptomycin. These cells were cultured at 37°C with 5% CO2. The suspensions of individual cell lines were prepared in their respective media and seeded into 96-well plates at a density of 4,000 cells/well for MV-4-11 and MOLM-13 cells, or 3,000 cells/well for KG-1a cells. On the day of the experiment, a compound stock solution was diluted in a 3-fold or 4-fold gradient using DMSO. Each gradient-diluted stock solution was then further diluted 250-fold with a complete medium to prepare a series of working solutions at different concentrations. Subsequently, 100 µL of working solution (containing a 2-fold concentration series of the test compound) was added to each well, with duplicate wells set up for each concentration.
Seven days after compound addition (on Day 7), an Alamar Blue assay reagent (MCE, HY-111391 / CS-0040317) was added to measure the fluorescence intensity in each well. Wells containing the cells in the growth medium supplemented with 0.1% DMSO (Day 7) served as high-read control wells. The readouts from the wells containing the cells in the growth medium supplemented with 0.1% DMSO on the day of compound addition (Day 0) served as low-reading control well. GraphPad Prism software was used to calculate the concentration required to inhibit 50% of cell proliferation (GI50), which serves as a cell proliferation inhibition activity index.

[2] = fluorescence polarization, read-out: Menin-MLL IC50
[3] = Menin-MLL IC50, fluorescence polarization

Structure (SMILES)	IC50 (Menin-MLL; [2])	IC50 ([1]; 168 h)	IC50 (Menin-MLL; [3])	IC50 ([1]; MOLM-13, 168 h)
CCN(C(=O)c1cc(F)ccc1-c1cc(C2CN([C@H](CCCN3CCN(C[C@H](O)CO)CC3)C(C)C)C2)cc2c1cnn2C)C(C)C [Example 412]	6.8 nM	39 nM	–	–
CCN(C(=O)c1cc(F)ccc1-c1cc(C2CN([C@H](CN3CCN(CCO)CC3)C(C)C)C2)cc2c1cnn2C)C(C)C [Example 416-2, N-ethyl-5-fluoro-2-(6-{1-[(2S)-1-[4-(2-hydroxyethyl)piperazin-1-yl]-3-methylbutan-2-yl]azacyclobutan-3-yl}-1-methyl-1H-indazol-4-yl)-N-(isopropyl)benzamide]	10.6 nM	69 nM	–	–
CCN(C(=O)c1cc(F)ccc1-c1cc(C2CN([C@H](CN3CCN(C(CO)CO)CC3)C(C)C)C2)cc2c1cnn2C)C(C)C [Example 419]	8.1 nM	85 nM	–	–
CCC(=O)NC1CCN(CCC[C@H](C(C)C)N2CC(c3cc(-c4ccc(F)cc4C(=O)N(CC)C(C)C)c4cnc(C)n4c3)C2)CC1 [Example 425]	2.7 nM	9.9 nM	–	–
CCN(C(=O)c1cc(F)ccc1-c1cc(C2CN([C@H](CCCN3C4COCC3C4)C(C)C)C2)cc2c1cnn2C)C(C)C [Example 426]	3.2 nM	30 nM	–	–
CCN(C(=O)c1cc(F)ccc1-c1cc(C2CN([C@H](CN3CCN(C[C@H](O)CO)CC3)C(C)C)C2)cn2c(C)ncc12)C(C)C [Example 428]	3.7 nM	52 nM	–	–
CCN(C(=O)c1cc(F)ccc1-c1cc(C2CN([C@H](CN3CCN(C[C@@H](O)CO)CC3)C(C)C)C2)cc2c1cnn2C)C(C)C [Example 434]	–	–	8.8 nM	32 nM
CCN(C(=O)c1cc(F)ccc1-c1cc(C2CN([C@H](CN3CCN(C(CO)CO)CC3)C(C)C)C2)cn2c(C)ncc12)C(C)C [Example 435]	4.9 nM	26 nM	–	–
Cc1ncc2c(-c3ccc(F)cc3C(=O)N(C)C(C)C)cc(C3CN(C(CCCN4CCN(C)CC4)C(C)C)C3)cn12 (centres unmarked) [Example 436, 5-fluoro-N-methyl-2-(3-methyl-6-{1-[2-methyl-6-(4-methylpiperazin-1-yl)hexan-3-yl]azacyclobutan-3-yl}imidazo[1,5-a]pyridin-8-yl)-N-(isopropyl)benzamide]	8.3 nM	42 nM	–	–
CCN(C(=O)c1cc(F)ccc1-c1cc(C2CN([C@H](CN3CCN(C[C@H](O)CO)CC3)C(C)C)C2)cc2c1cnn2C)C(C)C [Example 440]	–	–	8.9 nM	56 nM
CCN(C(=O)c1cc(F)ccc1-c1cc(C2CN(C(CC3COCCO3)C(C)C)C2)cn2c(C)ncc12)C(C)C (centres unmarked) [Example 445, 2-(6-{1-[1-(1,4-dioxane-2-yl)-3-methylbutan-2-yl]azacyclobutan-3-yl}-3-methylimidazo[1,5-a]pyridin-8-yl)-N-ethyl-5-fluoro-N-(isopropyl)benzamide]	20 nM	68 nM	–	–
Cc1ncc2c(-c3ccc(F)cc3C(=O)N(C)C(C)C)cc(C3CN([C@H](CCCN4CCN(CCO)CC4)C(C)C)C3)cn12 [Example 448-2]	2.2 nM	–	–	13 nM
CCN(C(=O)c1cc(F)ccc1-c1cc(C2CN([C@H](CC[C@@H]3COCCN3)C(C)C)C2)cn2c(C)ncc12)C(C)C [Example 449-1, N-ethyl-5-fluoro-2-(3-methyl-6-{1-[(3R)-4-methyl-1-[(3R)-morpholin-3-yl]pentan-3-yl]azacyclobutan-3-yl}imidazo[1,5-a]pyridin-8-yl)-N-(isopropyl)benzamide]	2.6 nM	6.1 nM	–	–
CCN(C(=O)c1cc(F)ccc1-c1cc(C2CN([C@H](CCCN3CCO[C@H](CO)C3)C(C)C)C2)cn2c(C)ncc12)C(C)C [Example 450]	5.2 nM	21 nM	–	–
CCN(C(=O)c1cc(F)ccc1-c1cc(C2CN([C@H](CCCN3CCO[C@@H](CO)C3)C(C)C)C2)cn2c(C)ncc12)C(C)C [Example 451]	4.7 nM	25 nM	–	–
CCN(C(=O)c1cc(F)ccc1-c1cc(C2CN([C@H](CCCN3CCOC[C@H]3CO)C(C)C)C2)cn2c(C)ncc12)C(C)C [Example 453]	5.3 nM	22 nM	–	–
CCN(C(=O)c1cc(F)ccc1-c1cc(C2CN(C(CC[C@@H]3COCCN3)C(C)C)C2)cc2c1cnn2C)C(C)C (stereo partly drawn) [Example 458, N-ethyl-5-fluoro-2-[1-methyl-6-(1-{4-methyl-1-[(3R)-morpholin-3-yl]pentan-3-yl}azacyclobutan-3-yl}-1H-indazol-4-yl)-N-(isopropyl)benzamide]	6.4 nM	31 nM	–	–

More lines, main results first:

IC50 (Menin-MLL; [2])	IC50 ([1]; 168 h)	Structure (SMILES)	IC50 (Menin-MLL; [3])	IC50 ([1]; MOLM-13, 168 h)
6.9 nM	45 nM	CCN(C(=O)c1cc(F)ccc1-c1cc(C2CN([C@H](CCCN3CCN(C[C@@H](O)CO)CC3)C(C)C)C2)cc2c1cnn2C)C(C)C [Example 413]	–	–
2.6 nM	25 nM	CCN(C(=O)c1cc(F)ccc1-c1cc(C2CN([C@H](CN3CCN(C[C@@H](O)CO)CC3)C(C)C)C2)cn2c(C)ncc12)C(C)C [Example 429]	–	–
8.4 nM	46 nM	CCN(C(=O)c1cc(F)ccc1-c1cc(C2CN([C@H](CN3CCN(CCOC)CC3)C(C)C)C2)cn2c(C)ncc12)C(C)C [Example 430]	–	–
3.3 nM	18 nM	CCN(C(=O)c1cc(F)ccc1-c1cc(C2CN([C@H](CCCN3CCN(C(CO)CO)CC3)C(C)C)C2)cc2c1cnn2C)C(C)C [Example 433, 2-(6-{1-[(3R)-6-[4-(1,3-dihydroxylpropan-2-yl)piperazin-1-yl]-2-methylhexan-3-yl]azacyclobutan-3-yl}-1-methyl-1H-indazol-4-yl)N-ethyl-5-fluoro-N-(isopropyl)benzamide]	–	–
11 nM	75 nM	CCN(C(=O)c1cc(F)ccc1-c1cc(C2CN([C@H](CN3CCS(=O)(=O)CC3)C(C)C)C2)cn2c(C)ncc12)C(C)C [Example 441-1, 2-(6-{1-[(2S)-1-(1,1-dioxo-thiomorpholin-4-yl)-3-methylbutan-2-yl]azacyclobutan-3-yl}-3-methylimidazo[1,5-a]pyridin-8-yl)-N-ethyl-5-fluoro-N-(isopropyl)benzamide]	–	–
5.3 nM	39 nM	CCN(C(=O)c1cc(F)ccc1-c1cc(C2CN([C@H](CCCN3CCOC[C@@H]3CO)C(C)C)C2)cn2c(C)ncc12)C(C)C [Example 452]	–	–
9.4 nM	69 nM	CCN(C(=O)c1cc(F)ccc1-c1cc(C2CN(C(CCO)C(C)C)C2)cn2c(C)ncc12)C(C)C (centres unmarked) [Example 455, N-ethyl-5-fluoro-2-{6-[1-(1-hydroxyl-4-methylpentan-3-yl)azacyclobutan-3-yl]-3-methylimidazo[1,5-a]pyridin-8-yl}-N-(isopropyl)benzamide]	–	–
2.6 nM	5 nM	CCN(C(=O)c1cc(F)ccc1-c1cc(C2CN([C@H](CC[C@H]3COCCN3)C(C)C)C2)cn2c(C)ncc12)C(C)C [Example 457-2, N-ethyl-5-fluoro-2-(3-methyl-6-{1-[(3R)-4-methyl-1-[(3S)-morpholin-3-yl]pentan-3-yl]azacyclobutan-3-yl}imidazo[1,5-a]pyridin-8-yl)-N-(isopropyl)benzamide]	–	–
